This note sets out measurements from PubChem BioAssay (NCI).

Structures are written as SMILES.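 Test compounds were applied to cells in 96-well plates for 48 hours at 5 doses. GI50 is the concentration that inhibits growth by half. TGI: concentration producing complete growth inhibition.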

Among the test systems are 786-0 renal; HOP-62 NSCLC; KM12 colon; NCI/ADR-RES ovarian; RPMI-8226 leukemia; SK-MEL-28 melanoma; SNB-19 CNS; UO-31 renal.
Holding throughout (experiment): NCI tumour cell line growth inhibition, 48 h

On to `O=C1/C(=C/c2ccc(F)cc2)CN(C(=O)CCN2CCC(=NO)CC2)C/C1=C\c1ccc(F)cc1`, for which the GI50 with 786-0 renal is 1.48 µM; with HOP-62 NSCLC it was 2.34 µM; in the experiment with KM12 colon, 0.537 µM; in the experiment on NCI/ADR-RES ovarian, 1.9 µM; in the experiment with RPMI-8226 leukemia, 0.707 µM; with SK-MEL-28 melanoma, 1.85 µM. For the same compound, the results for the GI50 in the experiment with SNB-19 CNS and in the experiment on UO-31 renal were 1.53 µM and 1.37 µM, respectively. In addition, the TGI in the experiment on 786-0 renal stood at 3.45 µM; with HOP-62 NSCLC, 6.02 µM; with KM12 colon, 1.33 µM; with NCI/ADR-RES ovarian, 23.4 µM; with RPMI-8226 leukemia, 2.13 µM; in the experiment on SK-MEL-28 melanoma it was 4.1 µM. Further, the figures for the TGI in the experiment with SNB-19 CNS and in the experiment with UO-31 renal were 4.1 µM and 2.84 µM, respectively.

As for `CC(=O)N1CCN(CCNC(=O)n2cc(-c3ccncc3)c(-c3cc(O)cc(Cl)c3)n2)CC1`, the GI50 in the experiment on 786-0 renal was 10.2 µM; with HOP-62 NSCLC, 16.7 µM; with KM12 colon, 14 µM; in the experiment on NCI/ADR-RES ovarian, 22.1 µM; with RPMI-8226 leukemia, 4.69 µM; with SK-MEL-28 melanoma, 3.92 µM. Besides, the GI50 in the experiment on SNB-19 CNS is 21.4 µM; in the experiment with UO-31 renal, 8.95 µM. The TGI is 23.3 µM in the experiment with 786-0 renal; 32.6 µM in the experiment on HOP-62 NSCLC; 34.4 µM in the experiment with KM12 colon; more than 100 µM with NCI/ADR-RES ovarian; 23.4 µM in the experiment on RPMI-8226 leukemia; 16.8 µM with SK-MEL-28 melanoma. Also, the TGI in the experiment with SNB-19 CNS is 78.6 µM; with UO-31 renal, 22.5 µM.

For the compound `CCN(CC)CCCC(C)Nc1cc(-c2cccc(OC(F)(F)F)c2)nc2ccc(N3CCCC3)cc12` (stereo not drawn), the GI50 was 0.158 µM in the experiment on 786-0 renal; 0.0806 µM in the experiment with HOP-62 NSCLC; 0.0437 µM in the experiment with KM12 colon; 0.0453 µM in the experiment with NCI/ADR-RES ovarian; 0.0788 µM with RPMI-8226 leukemia; 5.85 µM in the experiment with SK-MEL-28 melanoma. Further, the GI50 in the experiment with SNB-19 CNS was 0.118 µM; in the experiment with UO-31 renal it was 0.0699 µM. Further, the TGI in the experiment on 786-0 renal was 26.1 µM; in the experiment on HOP-62 NSCLC, more than 48.2 µM; in the experiment with KM12 colon it was 11.4 µM; in the experiment with NCI/ADR-RES ovarian it was 6.27 µM; with RPMI-8226 leukemia, 13.1 µM; in the experiment with SK-MEL-28 melanoma it was 58.4 µM. Further, the values for the TGI with SNB-19 CNS and in the experiment with UO-31 renal were more than 100 µM and 44.3 µM, respectively.

As to `S=C1Cc2c(-c3ccc(Br)cc3)cc(-c3ccccc3)nc2-c2ccccc2N1`, in the experiment on 786-0 renal, the GI50 is 0.632 µM. Further, the TGI in the experiment on 786-0 renal was 1.79 µM; in the experiment with HOP-62 NSCLC, 3.01 µM; in the experiment on KM12 colon, more than 42 µM; in the experiment on NCI/ADR-RES ovarian, 4.43 µM; in the experiment with RPMI-8226 leukemia, 65.8 µM; in the experiment with SK-MEL-28 melanoma, 27.3 µM. Also, the TGI in the experiment on SNB-19 CNS was found to be 3.52 µM; with UO-31 renal, 4.77 µM.

As for `c1ccc(OCCC[P+](c2ccccc2)(c2ccccc2)c2ccccc2)cc1`, the GI50 with 786-0 renal is 4.14 µM; with HOP-62 NSCLC, 4.55 µM; with KM12 colon, 0.55 µM; with NCI/ADR-RES ovarian it was more than 100 µM; in the experiment with RPMI-8226 leukemia it was 0.303 µM; with SK-MEL-28 melanoma, 1.09 µM. Besides, the GI50 is 2.27 µM with SNB-19 CNS and 13.9 µM in the experiment with UO-31 renal. In addition, the TGI in the experiment on 786-0 renal is 20 µM; in the experiment on HOP-62 NSCLC, 42.8 µM; in the experiment with KM12 colon, 10.9 µM; with NCI/ADR-RES ovarian, more than 100 µM; in the experiment with RPMI-8226 leukemia, 3.66 µM; with SK-MEL-28 melanoma, 13.4 µM. Besides, the TGI was 17.8 µM in the experiment on SNB-19 CNS and 36.6 µM with UO-31 renal.

Take `CC(C)N(Cc1ccc(CN(C(=O)CCl)C(C)C)cc1)C(=O)CCl`: the GI50 with 786-0 renal is 0.351 µM; with HOP-62 NSCLC it was 0.856 µM; in the experiment with KM12 colon, 1.75 µM; in the experiment with NCI/ADR-RES ovarian, 2.49 µM; with RPMI-8226 leukemia, 2.06 µM; in the experiment with SK-MEL-28 melanoma it was 2.36 µM. Further, the values for the GI50 with SNB-19 CNS and with UO-31 renal were 2.16 µM and 1.76 µM, respectively. The TGI was determined as 1.3 µM with 786-0 renal; 2.37 µM with HOP-62 NSCLC; 3.54 µM in the experiment with KM12 colon; 7.73 µM with NCI/ADR-RES ovarian; 5.13 µM with RPMI-8226 leukemia; 6.52 µM in the experiment on SK-MEL-28 melanoma. Further, the TGI in the experiment on SNB-19 CNS stood at 5.4 µM; in the experiment with UO-31 renal, 3.21 µM.

`CC(C)OC(=S)Nc1ccc(Cl)c(/C=N/OC(C)(C)C)c1`: the TGI in the experiment on 786-0 renal was found to be 34.3 µM; with HOP-62 NSCLC, 41.4 µM; with KM12 colon, 17.6 µM; in the experiment with NCI/ADR-RES ovarian, 16.8 µM; with RPMI-8226 leukemia, 51.3 µM; with SK-MEL-28 melanoma, 44.8 µM. Also, the TGI in the experiment with SNB-19 CNS turned out to be 44.2 µM; in the experiment with UO-31 renal, 27.2 µM.

`COc1ccc(-c2cncn2-c2cc(OC)c(OC)c(OC)c2)cc1`: the GI50 in the experiment with 786-0 renal was 0.115 µM; with HOP-62 NSCLC it was 0.101 µM; in the experiment on KM12 colon, 0.0224 µM; in the experiment with NCI/ADR-RES ovarian it was 0.0652 µM; with RPMI-8226 leukemia, 0.451 µM; with SK-MEL-28 melanoma, 11.3 µM. Further, the values for the GI50 in the experiment with SNB-19 CNS and with UO-31 renal were 0.349 µM and 0.0936 µM, respectively. For the same compound, the TGI in the experiment with 786-0 renal is 43.7 µM; with HOP-62 NSCLC, more than 71.6 µM; with KM12 colon it was 1.53 µM; with NCI/ADR-RES ovarian it was 0.915 µM; with RPMI-8226 leukemia it was 3.29 µM; with SK-MEL-28 melanoma, more than 100 µM. Further, the TGI in the experiment on SNB-19 CNS is more than 100 µM; with UO-31 renal, 18.2 µM.
